Assays:
[1] = tested on: BRS3 receptors in placental mammals; experiment: Intracellular calcium assay, placental pooled; assay type: cell-based, human, mouse, dog, and aardvark; settings: 10 nM peptide, HEK293
Experimental: (§1) Intracellular calcium was measured using the non-wash calcium assay Fluo8 kit (ab112129, Abcam) according to the manufacturer’s instructions. Briefly, HEK293 cells were seeded in 24-well plates and were transfected with GRPR, NMBR, BRS3, or the empty vector plasmid pcDNA3.1-V5-His (300 ng) and incubated overnight at 37°C with 5% CO2. The next day, the cells were replated into a 96-well assay plate (black plate and clear bottom). After 12 h, growth media were aspirated, and calcium dye was added. […] The basal fluorescence intensity was recorded 15 times at 1 Hz for […]. The results were normalized to the average basal fluorescence intensity in ratio, and the peak response was used for the result calculation. Calcium fold was calculated using no stimulation data as standard value.

turtle BRS3 (tBRS3) = experiment: Intracellular calcium assay (WT and mutants); assay type: cell-based, Chrysemys picta; settings: 10 nM peptide; for Calcium fold: HEK293, Fluo8, tBRS3; for Intracellular Ca2+, mutants vs wild type (in words): tBRS3 Q127R, P205S, and R294H, each
Experimental: as §1

[2] = tested on: BRS3 receptors of placental mammals; experiment: Luciferase reporter, GRP/NMB stimulated, placental pooled; assay type: cell-based, human, mouse, dog, and aardvark; settings: CRE/NFAT-RE/SRF-RE/SRE reporters; 0/10/100/1,000 nM, 12 h, HEK293
Experimental: To detect constitutive activity of BRS3, HEK293 cells were seeded in 24-well plates and cotransfected with the CRE/NFAT-RE/SRF-RE/SRE luciferase reporter plasmids (50 ng), the BRS3 from different species, or BRS3 mutants with different doses (10 ng/50 ng/150 ng); after 24 h, cells were further incubated in serum-free media for another 12 h before luciferase assay. As for peptide supplementation treatment, HEK293 cells were cotransfected with the CRE/NFAT-RE/SRF-RE/SRE luciferase reporter plasmids (50 ng) and various genes (300 ng) of the bombesin receptor family. […] Luciferase activities were determined using luciferase assay kits (Beyotime, Shanghai, China) and normalized to β-galactosidase activity. All experiments were performed at least three times in triplicates. HEK293 cells transfected with pcDNA were used as a blank control in all luciferase experiments, and the fold was calculated compared to blank control.

GRPR [3] = molecular target: T1, GRPR (Homo sapiens, UniProt P30550); experiment: Intracellular calcium assay; assay type: cell-based; settings: 10 nM peptide, HEK293, Fluo8, GRPR
T1 construct: HA; expressed in transfected cells; host or cells: HEK293
T1 sequence (P30550 whole entry, species assumed): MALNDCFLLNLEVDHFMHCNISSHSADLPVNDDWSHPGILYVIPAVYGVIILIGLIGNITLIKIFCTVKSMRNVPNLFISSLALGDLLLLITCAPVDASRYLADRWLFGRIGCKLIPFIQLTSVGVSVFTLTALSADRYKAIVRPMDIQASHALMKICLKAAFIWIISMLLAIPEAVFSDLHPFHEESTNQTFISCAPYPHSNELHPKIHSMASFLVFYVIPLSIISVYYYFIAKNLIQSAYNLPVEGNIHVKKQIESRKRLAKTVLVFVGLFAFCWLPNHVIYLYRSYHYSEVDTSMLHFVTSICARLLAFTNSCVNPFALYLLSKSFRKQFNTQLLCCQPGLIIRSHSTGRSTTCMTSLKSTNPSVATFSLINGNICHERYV
Experimental: as §1

NMBR = molecular target: T2, NMBR (Homo sapiens, UniProt P28336); experiment: Radioligand binding (competition); settings: [125I]-Tyr-NMB
T2 construct: HA; expressed in transfected cells; host or cells: HEK293
T2 sequence (P28336 whole entry, species assumed): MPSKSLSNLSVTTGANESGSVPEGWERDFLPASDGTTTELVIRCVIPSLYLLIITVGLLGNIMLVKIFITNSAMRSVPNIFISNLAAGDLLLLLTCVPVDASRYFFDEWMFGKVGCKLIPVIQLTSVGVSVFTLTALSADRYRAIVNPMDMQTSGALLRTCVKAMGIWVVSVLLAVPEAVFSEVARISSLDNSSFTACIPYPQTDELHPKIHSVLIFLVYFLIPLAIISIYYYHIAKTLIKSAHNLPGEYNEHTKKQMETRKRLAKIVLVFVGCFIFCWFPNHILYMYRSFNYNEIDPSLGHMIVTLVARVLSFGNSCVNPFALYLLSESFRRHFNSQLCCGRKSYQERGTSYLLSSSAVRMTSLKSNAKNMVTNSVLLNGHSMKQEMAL
Experimental: HEK293 cells were seeded in a 10-cm tissue culture dish at a density of 10^6 cells per dish and grown overnight at 37°C in growth medium. The following morning, 5 μg of different species’ BRS3 plasmids were transfected. After 6 h, the medium was replaced with growth medium. Cells were maintained at 37°C in a 5% CO2 atmosphere and used 48 h later for binding assays. The positive control group included transfected GRPR and NMBR; the test group consisted of transfected BRS3 from different species. […] The cell concentration was adjusted to between 0.05 and 4 × 10^6 cells/ml for each receptor such that less than 20% of the total added radioactive ligand was bound during the incubation, and the results were compared to cells transfected with GRPR or NMBR adjusted in concentration to bind a similar amount of ligand. After the incubation, 100 μl aliquots were added to 1.5-ml microfuge tubes, which contained 100 μl of binding buffer to determine the total radioactivity. […] The amount of radioactivity bound to the cells was measured in a Cobra II Gamma counter (Packard Instruments). Binding was expressed as the percentage of total radioactivity that was associated with the cell pellet. […] Each point was measured in duplicate, and each experiment was replicated at least four times. […] All the experiment data were calculated using 1 pM ligand-treated as 100% control.

chicken BRS3 (cBRS3) [4] = experiment: Intracellular calcium assay (WT and mutants); assay type: cell-based, Gallus gallus; settings: 10 nM peptide, HEK293, Fluo8, cBRS3
Experimental: as §1

chicken BRS3 (cBRS3) [5] = experiment: Radioligand binding (competition); set-up: species or system Gallus gallus; settings: transfected HEK293 cells, 1 h 21°C, pH 7.4, mean ± SE, at least three experiments
Experimental: HEK293 cells were seeded in a 10-cm tissue culture dish at a density of 10^6 cells per dish and grown overnight at 37°C in growth medium. The following morning, 5 μg of different species’ BRS3 plasmids were transfected. After 6 h, the medium was replaced with growth medium. Cells were maintained at 37°C in a 5% CO2 atmosphere and used 48 h later for binding assays. The positive control group included transfected GRPR and NMBR; the test group consisted of transfected BRS3 from different species. […] The cell concentration was adjusted to between 0.05 and 4 × 10^6 cells/ml for each receptor such that less than 20% of the total added radioactive ligand was bound during the incubation, and the results were compared to cells transfected with GRPR or NMBR adjusted in concentration to bind a similar amount of ligand. After the incubation, 100 μl aliquots were added to 1.5-ml microfuge tubes, which contained 100 μl of binding buffer to determine the total radioactivity. The bound tracer was separated from unbound tracer by pelleting the cells through the binding buffer by centrifugation at 10,000g in a Microfuge E (Beckman) for 3 min. The supernatant was aspirated, and the pelleted cells were rinsed twice with a washing buffer that contained 1% (w/v) BSA in PBS. The amount of radioactivity bound to the cells was measured in a Cobra II Gamma counter (Packard Instruments). Binding was expressed as the percentage of total radioactivity that was associated with the cell pellet. […] Each point was measured in duplicate, and each experiment was replicated at least four times. […] All the experiment data were calculated using 1 pM ligand-treated as 100% control.

GRPR [6] = molecular target: T1, GRPR; experiment: Radioligand binding (competition); settings: [125I]-Tyr42-GRP
Experimental: HEK293 cells were seeded in a 10-cm tissue culture dish at a density of 10^6 cells per dish and grown overnight at 37°C in growth medium. The following morning, 5 μg of different species’ BRS3 plasmids were transfected. After 6 h, the medium was replaced with growth medium. Cells were maintained at 37°C in a 5% CO2 atmosphere and used 48 h later for binding assays. The positive control group included transfected GRPR and NMBR; the test group consisted of transfected BRS3 from different species. Then, [^125I]-Tyr^42-GRP and [^125I]-Tyr-NMB were used as the ligands to assess affinity to the various receptors. […] After the incubation, 100 μl aliquots were added to 1.5-ml microfuge tubes, which contained 100 μl of binding buffer to determine the total radioactivity. […] The amount of radioactivity bound to the cells was measured in a Cobra II Gamma counter (Packard Instruments). Binding was expressed as the percentage of total radioactivity that was associated with the cell pellet. […] Each point was measured in duplicate, and each experiment was replicated at least four times. […] All the experiment data were calculated using 1 pM ligand-treated as 100% control.

Substance: GSHWAVGHLM-NH2 [GRP, gastrin-releasing peptide]
- Intracellular Ca2+ (in words) [1]: no stimulation was observed
- Calcium fold (turtle BRS3 (tBRS3); replicate 1): 5.1678 fold
- Calcium fold (turtle BRS3 (tBRS3); replicate 2): 5.2199 fold
- Calcium fold (turtle BRS3 (tBRS3); replicate 3): 5.5876 fold
- Intracellular Ca2+, mutants vs wild type (in words) (turtle BRS3 (tBRS3)): remarkable decrease of cellular Ca^2+ ions
- Luciferase stimulation (in words) [2]: stimulation of luciferase units cannot be detected
- Calcium fold (GRPR [3]; replicate 1): 5.512 fold
- Calcium fold (GRPR [3]; replicate 2): 5.7711 fold
- Calcium fold (GRPR [3]; replicate 3): 5.9191 fold
- Inhibition of NMBR–NMB binding (in words) (NMBR): cannot inhibit
- Calcium fold (chicken BRS3 (cBRS3) [4]; replicate 1): 5.1641 fold
- Calcium fold (chicken BRS3 (cBRS3) [4]; replicate 2): 5.5593 fold
- Calcium fold (chicken BRS3 (cBRS3) [4]; replicate 3): 5.8165 fold
- IC50 (chicken BRS3 (cBRS3) [5]; 50 pM [125I]-Tyr42-GRP): 0.15 nM
- IC50 (chicken BRS3 (cBRS3) [5]; 50 pM [125I]-Tyr-NMB): 0.18 nM

Substance: neuromedin B [NMB]
- Intracellular Ca2+ (in words) [1]: no stimulation was observed
- Intracellular Ca2+, mutants vs wild type (in words) (turtle BRS3 (tBRS3)): remarkable decrease of cellular Ca^2+ ions
- Luciferase stimulation (in words) [2]: stimulation of luciferase units cannot be detected
- Inhibition of GRPR–GRP binding (in words) (GRPR [6]): very low affinity
- IC50 (chicken BRS3 (cBRS3) [5]; 50 pM [125I]-Tyr42-GRP): 1.35 nM
- IC50 (chicken BRS3 (cBRS3) [5]; 50 pM [125I]-Tyr-NMB): 2.26 nM
